Measured values taken from ChEMBL document CHEMBL3297669, “Suvanine sesterterpenes and deacyl irciniasulfonic acids from a tropical Coscinoderma sp. sponge” (J Nat Prod, 2014).
Converted amounts (≈) assume the structure as drawn.

Assays:
[1] = tested on: Escherichia coli; assay: Antimicrobial activity against Escherichia coli ATCC 35270 after 24 hrs by two-fold broth dilution method; assay type: functional; details: ATCC 35270, 24 h
[2] = tested on: Kocuria rhizophila; assay: Antimicrobial activity against Kocuria rhizophila NBRC 12708 after 24 hrs by two-fold broth dilution method; assay type: functional; details: NBRC 12708, 24 h
[3] = tested on: Bacillus spizizenii; assay: Antimicrobial activity against Bacillus subtilis ATCC 6633 after 24 hrs by two-fold broth dilution method; assay type: functional; details: ATCC 6633, 24 h
[4] = Inhibition of sortase A (unknown origin)
[5] = tested on: Staphylococcus aureus; assay: Antimicrobial activity against Staphylococcus aureus ATCC 6538p after 24 hrs by two-fold broth dilution method; assay type: functional
[6] = tested on: Proteus hauseri; assay: Antimicrobial activity against Proteus hauseri NBRC 3851 after 24 hrs by two-fold broth dilution method; assay type: functional; details: NBRC 3851, 24 h
[7] = tested on: Salmonella enterica; assay: Antimicrobial activity against Salmonella enterica ATCC 14028 after 24 hrs by two-fold broth dilution method; assay type: functional; details: ATCC 14028, 24 h
[8] = tested on: A549; assay: Cytotoxicity against human A549 cells; assay type: functional; details: read-out: LC50 (the source's name)
[9] = tested on: K562; assay: Cytotoxicity against human K562 cells; assay type: functional; details: read-out: LC50 (the source's name)
[10] = tested on: Pyricularia grisea; assay: Inhibition of Magnaporthe grisea Guy 11 isocitrate lyase

Compound	MIC [1] [µg/mL]	MIC [2] [µg/mL]	MIC [3] [µg/mL]	IC50 [4] [µM]	MIC [5] [µg/mL]	MIC [6] [µg/mL]	MIC [7] [µg/mL]	CC50 [8] [µg/mL]	CC50 [9] [µg/mL]	MIC [10] [µg/mL]
CC1(C)S[C@@H]2[C@H](NC(=O)[C@H](N)c3ccccc3)C(=O)N2[C@H]1C(=O)O [AMPICILLIN]	3.12 (≈ 8.93 µM)	0.39 (≈ 1.12 µM)	0.39 (≈ 1.12 µM)	> 100	0.39 (≈ 1.12 µM)	0.78 (≈ 2.23 µM)	0.39 (≈ 1.12 µM)			
CC1(C)CCC[C@]2(C)[C@H]3CC/C(=C\OS(=O)(=O)[O-])[C@H](CCc4ccoc4)[C@@]3(C)CC[C@@H]12.C[N+](C)=C(N)N [SUVANINE]	> 100	> 100	12.5	> 100	> 100	100	25	1.7	0.9	
CC1(C)CCC[C@]2(C)[C@H]3CC/C(=C\OS(=O)(=O)[O-])[C@H](CCC4=CCN(CCS(=O)(=O)O)C4=O)[C@@]3(C)CC[C@@H]12.[Na+]	> 100	> 100	> 100	> 100	> 100	> 100	> 100	2	4.6	90
C[C@H](C(=O)O)N1CC=C(CC[C@H]2/C(=C/OS(=O)(=O)[O-])CC[C@H]3[C@]2(C)CC[C@H]2C(C)(C)CCC[C@]32C)C1=O.[Na+]	> 100	> 100	> 100	> 100	> 100	> 100	50	1.1	1.9	48
COc1cccc2c1C(=O)c1c(O)c3c(c(O)c1C2=O)C[C@@](O)(C(=O)CO)C[C@@H]3O[C@H]1C[C@H](N)[C@H](O)[C@H](C)O1 [DOXORUBICIN]				> 100				0.8 (≈ 1.47 µM)	0.7 (≈ 1.29 µM)	
C[C@@H]1O[C@@H](O[C@H]2C[C@@H](O)[C@]3(CO)[C@H]4[C@H](O)C[C@]5(C)[C@@H](C6=CC(=O)OC6)CC[C@]5(O)[C@@H]4CC[C@]3(O)C2)[C@H](O)[C@H](O)[C@H]1O [OUABAIN]				> 100						
C[S+]([O-])CCCN1CC=C(CC[C@H]2/C(=C/OS(=O)(=O)[O-])CC[C@H]3[C@]2(C)CC[C@H]2C(C)(C)CCC[C@]32C)C1=O.[Na+] (stereo not given in full)				> 100	> 100		50	5.5	3.9	24
CC1(C)CCC[C@]2(C)[C@H]3CC/C(=C\OS(=O)(=O)[O-])[C@H](CCc4ccoc4)[C@@]3(C)CC[C@@H]12.C[N+](C)=C(N)N										51
O=C(O)CC[N+](=O)[O-]				> 100						2.5 (≈ 21 µM)
CC1(C)CCC[C@]2(C)[C@H]3CC/C(=C\OS(=O)(=O)[O-])[C@H](CCc4ccoc4)[C@@]3(C)CC[C@@H]12.CN(C)c1n(C)c(=O)c2c([n+]1C)N(C)CN2C [listing 1 of 2 here]	> 100	6.25	0.78	> 100	6.25	6.25	0.78	1.9	2.2	
CC1(C)CCC[C@]2(C)[C@H]3CC/C(=C\OS(=O)(=O)[O-])[C@H](CCC4=CCN(CC(=O)O)C4=O)[C@@]3(C)CC[C@@H]12.[Na+]	> 100	> 100	> 100	> 100	> 100	> 100	> 100	1.4	1.3	62
C/C(=C/C(=O)NCCS(=O)(=O)[O-])CCCCC[C@H](C)O.[Na+]				> 100	> 100		> 100	> 100	> 100	> 100
CC(C)[C@@H](C(=O)O)N1CC(CC[C@H]2/C(=C/OS(=O)(=O)[O-])CC[C@H]3[C@]2(C)CC[C@H]2C(C)(C)CCC[C@]32C)=CC1=O.[Na+]	> 100	> 100	> 100	> 100	> 100	> 100	100	1.9	3.9	64
CC1(C)CCC[C@]2(C)[C@H]3CC/C(=C\OS(=O)(=O)[O-])[C@H](CCC4=CC(=O)N(CCS(=O)(=O)O)C4)[C@@]3(C)CC[C@@H]12.[Na+]	> 100	> 100	> 100	> 100	> 100	> 100	> 100	3.5	3.6	50
CC(=O)CCCCC/C(C)=C\C(=O)NCCS(=O)(=O)O	> 100	> 100	> 100	> 100	> 100	> 100	> 100	> 100	> 100	> 100
CC1(C)CCC[C@]2(C)[C@H]3CC/C(=C\OS(=O)(=O)[O-])[C@H](CCc4ccoc4)[C@@]3(C)CC[C@@H]12.CN(C)c1n(C)c(=O)c2c([n+]1C)N(C)CN2C [listing 2 of 2 here]										28
